# Assay results from patent US6475953B1, “Composition and method for treating plants with exogenous chemicals” (Monsanto Technology LLC, priority 1996, dated 2002).
# Assays:
# Format in all cases: in vivo
# [1] = tested on: Velvetleaf (Abutilon theophrasti, ABUTH); experiment: Greenhouse herbicidal effectiveness test, percent inhibition, velvetleaf
# Description: (§1) The herbicidal effectiveness data set forth herein report “inhibition” as a percentage following a standard procedure in the art which reflects a visual assessment of plant mortality and growth reduction by comparison with untreated plants, made by technicians specially trained to make and record such observations. In all cases. a single technician makes all assessments of percent inhibition within any one experiment or trial. Such measurements are relied upon and regularly reported by Monsanto Company in the course of its herbicide business.
# (§2) The following procedure was used for testing compositions of the Examples to determine herbicidal effectiveness, except where otherwise indicated.
# (§3) Seeds of the plant species indicated were planted in 85 mm square pots in a soil mix which was previously steam sterilized and prefertilized with a 14-14-14 NPK slow release fertilizer at a rate of 3.6 kg/m3. The pots were placed in a greenhouse with sub-irrigation. About one week after emergence, seedlings were thinned as needed, including removal of any unhealthy or abnormal plants, to create a uniform series of test pots.
# (§4) The plants were maintained for the duration of the test in the greenhouse where they received a minimum of 14 hours of light per day. If natural light was insufficient to achieve the daily requirement, artificial light with an intensity of approximately 475 microeinsteins was used to make up the difference. Exposure temperatures were not precisely controlled but averaged about 27° C. during the day and about 18° C. during the night. Plants were sub-irrigated throughout the test to ensure adequate soil moisture levels.
# (§5) A set of pots was left untreated as a reference against which effects of the treatments could later be evaluated.
# (§6) Application of glyphosate compositions was made by spraying with a track sprayer fitted with a 9501E nozzle calibrated to deliver a spray volume of 93 liters per hectare (1/ha) at a pressure of 166 kilopascals (kPa). After treatment, pots were returned to the greenhouse until ready for evaluation.
# (§7) Treatments were made using dilute aqueous compositions. These could be prepared as spray compositions directly from their ingredients, or by dilution with water of preformulated concentrate compositions.
# (§8) For evaluation of herbicidal effectiveness, all plants in the test were examined by a single practiced technician, who recorded percent inhibition, a visual measurement of the effectiveness of each treatment by comparison with untreated plants.
# (§9) Velvetleaf (Abutilon theophrasti, ABUTH) and Japanese millet (Echinochloa crus-galli, ECHCF) plants were grown and treated by the standard procedures given above. […]
# [2] = tested on: Japanese millet (Echinochloa crus-galli, ECHCF); experiment: Greenhouse herbicidal effectiveness test, percent inhibition, Japanese millet; settings: for % Inhibition ECHCF: Example 90, evaluation 11 days after application
# Description: as §1, §2, §3, §4, §5, §6, §7, §8, §9
# [3] = tested on: Prickly sida (Sida spinosa, SIDSP); experiment: Greenhouse herbicidal effectiveness test, percent inhibition, prickly sida
# Description: as §1, §2, §3, §4, §5, §6, §7
# For evaluation of herbicidal effectiveness, all plants in the test were examined by a single practiced technician, who recorded percent inhibition, a visual measurement of the effectiveness of each treatment by comparison with untreated plants. […]
# Prickly sida (Sida spinosa, SIDSP) plants were grown and treated by the standard procedures given above. Applications of spray compositions were made 22 days after planting SIDSP, and evaluation of herbicidal inhibition was done 19 days after application.
# Prickly sida (Sida spinosa, SIDSP) plants were grown and treated by the standard procedures given above. Applications of spray compositions were made 23 days after planting SIDSP, and […].
# Prickly sida (Sida spinosa, SIDSP) plants were grown and treated by the standard procedures given above. Applications of spray compositions were made 22 days after planting SIDSP, and evaluation of herbicidal inhibition was done 19 days after application. […]
# [4] = tested on: plant species indicated in the Example (ABUTH, ECHCF, SIDSP ...); experiment: Greenhouse herbicidal effectiveness test, stated overall or averaged over the plant species of the Example; settings: statement in the discussion of the Example at the place; rates and comparators as stated there
# Description: as §1
# The following procedure was used for testing compositions of the Examples to determine herbicidal effectiveness, except where otherwise indicated. […]
# as §5
# as §6, with “evaluation. […]” for “evaluation.”
# as §8
# [5] = Echinochloa crus-galli, 240 h, read-out: % Inhibition ECHCF
# [6] = Sida spinosa, 240 h, read-out: % Inhibition SIDSP
# [7] = Example 90, glufosinate rate 50 g a.i./ha, evaluation 11 days after application
compound,measurement,setting,value
O=C(O)c1cc(Oc2ccc(C(F)(F)F)cc2Cl)ccc1[N+](=O)[O-] [Acifluorfen],inhibition at 25 g/ha,"[1]; Abutilon theophrasti, 240 h, Example 83, acifluorfen rate 25 g a.i./ha, evaluated 10 days after application",20%
same,inhibition at 50 g/ha,"[1]; Abutilon theophrasti, 240 h, Example 83, acifluorfen rate 50 g a.i./ha, evaluated 10 days after application",32%
same,inhibition at 100 g/ha,"[1]; Abutilon theophrasti, 240 h, Example 83, acifluorfen rate 100 g a.i./ha, evaluated 10 days after application",52%
same,inhibition at 200 g/ha,"[1]; Abutilon theophrasti, 240 h, Example 83, acifluorfen rate 200 g a.i./ha, evaluated 10 days after application",62%
same,inhibition at 25 g/ha,[2]; [5],2%
same,inhibition at 50 g/ha,[2]; [5],7%
same,inhibition at 100 g/ha,[2]; [5],18%
same,inhibition at 200 g/ha,[2]; [5],35%
same,inhibition at 25 g/ha,[3]; [6],15%
same,inhibition at 50 g/ha,[3]; [6],17%
same,inhibition at 100 g/ha,[3]; [6],35%
same,inhibition at 200 g/ha,[3]; [6],40%
COC(=O)NS(=O)(=O)c1ccc(N)cc1 [Asulam (technical)],% Inhibition ABUTH,"[1]; asulam rate 400 g a.i./ha, evaluation 14 days after application",17%
COc1c(Cl)ccc(Cl)c1C(=O)O [Dicamba (technical)],% Inhibition SIDSP,"[3]; dicamba rate 25 g a.i./ha, evaluation 17 days after application",30%
same,% Inhibition SIDSP,"[3]; dicamba rate 50 g a.i./ha, evaluation 17 days after application",40%
same,% Inhibition SIDSP,"[3]; dicamba rate 100 g a.i./ha, evaluation 17 days after application",50%
same,% Inhibition SIDSP,"[3]; dicamba rate 200 g a.i./ha, evaluation 17 days after application",58%
"C[N+](C)(C)CCCNS(=O)(=O)C(F)(F)C(F)(F)C(F)(F)C(F)(F)C(F)(F)C(F)(F)C(F)(F)C(F)(F)F.[I-] [Fluorad FC-135, 3-(((heptadecafluorooctyl)sulfonyl)amino)-N,N,N-trimethyl-1-propaminium iodide]",concentration of Fluorad FC-135 which had to be added in tank-mix to Formulation B to bring its herbicidal performance up to that of Formulation C,"[1]; Example 21, ABUTH, 20 days after application",~0.02%
same,optimum adjuvant concentration,"[1]; Example 25, ABUTH, tank-mix adjuvant for glyphosate as Formulation B, 21 days after application",0.2%
same,concentration of Fluorad FC-135 which had to be added in tank-mix to Formulation B to bring its herbicidal performance up to that of Formulation C,"[2]; Example 21, ECHCF, after application",approximately 0.25%
same,optimum adjuvant concentration,"[2]; Example 25, ECHCF, tank-mix adjuvant for glyphosate as Formulation B, 21 days after application",0.2%
same,concentration of Fluorad FC-135 which had to be added in tank-mix to Formulation B to bring its herbicidal performance up to that of Formulation C,"[3]; Example 21, SIDSP, 20 days after application",~0.1%
CP(=O)(O)CCC(N)C(=O)O (stereo not drawn) [Glufosinate (technical)],% Inhibition ABUTH,[1]; [7],0%
same,% Inhibition ECHCF,[2]; glufosinate rate 50 g a.i./ha,0%
same,% Inhibition ECHCF,[2]; glufosinate rate 100 g a.i./ha,0%
same,% Inhibition SIDSP,[3]; [7],5%
same,% Inhibition SIDSP,"[3]; Example 90, glufosinate rate 100 g a.i./ha, evaluation 11 days after application",10%
"O=C(O)CNCP(=O)(O)O [glyphosate, N-phosphonomethylglycine, reference compound]",average inhibition of ABUTH,"[1]; Example 27, average over four glyphosate rates, no excipient, 19 days after application",32%
Steareth-20,"herbicidal effectiveness, overall for the species of the Example, in words",[4],more effective additives for Formulation B than steareth-10
ceteareth-30,"herbicidal effectiveness, overall for the species of the Example, in words",[4],more effective additives for Formulation B than steareth-10
